Measured values: ChEMBL document CHEMBL1201862, “PubChem BioAssay data set” (2004)
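A five-concentration, 48-hour dose response in 96-well plates underlies each endpoint, interpolated linearly between surrounding concentrations. At the GI50, growth is halved.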 The source made the active and inactive calls. Cut-off read from the data, not from the text of the source: active = GI50 up to about 1.1 µM and inactive = higher.

Legend:
Experiment in all cases: NCI-60 cell line screen, 48 h
[1] = tested on: 786-0
[2] = tested on: A498
[3] = tested on: A549
[4] = tested on: ACHN
[5] = tested on: BT-549
[6] = tested on: CAKI-1
[7] = tested on: CCRF-CEM
[8] = tested on: COLO 205
[9] = tested on: DU-145
[10] = tested on: EKVX
[11] = tested on: HCC 2998
[12] = tested on: HCT-116
[13] = tested on: HCT-15
[14] = tested on: HL-60
[15] = tested on: HOP-62
[16] = tested on: HOP-92
[17] = tested on: HT-29
[18] = tested on: Hs-578T
[19] = tested on: IGROV-1
[20] = tested on: K562
[21] = tested on: KM12
[22] = tested on: LOX IMVI
[23] = tested on: M14
[24] = tested on: MCF7
[25] = tested on: MDA-MB-231
[26] = tested on: MDA-MB-435
[27] = tested on: MDA-N
[28] = tested on: MOLT-4
[29] = tested on: NCI-H226
[30] = tested on: NCI-H23
[31] = tested on: NCI-H460
[32] = tested on: NCI-H522
[33] = tested on: NCI/ADR-RES
[34] = tested on: OVCAR-3
[35] = tested on: OVCAR-4
[36] = tested on: OVCAR-5
[37] = tested on: OVCAR-8
[38] = tested on: PC-3
[39] = tested on: RPMI-8226
[40] = tested on: RXF 393
[41] = tested on: SF-268
[42] = tested on: SF-295
[43] = tested on: SF-539
[44] = tested on: SK-MEL-28
[45] = tested on: SK-MEL-2
[46] = tested on: SK-MEL-5
[47] = tested on: SK-OV-3
[48] = tested on: SN12C
[49] = tested on: SNB-19
[50] = tested on: SNB-75
[51] = tested on: SR
[52] = tested on: SW-620
[53] = tested on: T47D
[54] = tested on: TK-10
[55] = tested on: U-251
[56] = tested on: UACC-257
[57] = tested on: UACC-62
[58] = tested on: UO-31
[59] = tested on: Malme-3M

For `COC(=O)c1cnc(Cl)c([N+](=O)[O-])c1`, the GI50 [1] was 3.57 µM (inactive), the GI50 [2] was 21.4 µM (inactive) and the GI50 [3] was 20.6 µM (inactive). The GI50 [4] was 12.6 µM (inactive), the GI50 [5] was 17.9 µM (inactive) and the GI50 [6] was 11.2 µM (inactive). The GI50 [7] was 2.11 µM (inactive), the GI50 [8] was 3.54 µM (inactive) and the GI50 [9] was 9.57 µM (inactive). For the same molecule, the GI50 [10] was 1.8 µM (inactive), the GI50 [11] was 8.34 µM (inactive) and the GI50 [12] was 2.77 µM (inactive). For the same molecule, the GI50 [13] was 2 µM, the GI50 [14] was 2.42 µM (inactive) and the GI50 [15] was 19.1 µM (inactive). For the same molecule, the GI50 [16] was 2.17 µM (inactive), the GI50 [17] was 14.3 µM (inactive) and the GI50 [18] was 22.4 µM (inactive). The GI50 [19] was 2.79 µM (inactive), the GI50 [20] was 2.44 µM (inactive) and the GI50 [21] was 17.4 µM (inactive). For the same molecule, the GI50 [22] was 1.93 µM (inactive), the GI50 [23] was 14 µM (inactive) and the GI50 [24] was 2.12 µM (inactive). The GI50 [25] was 16.3 µM (inactive), the GI50 [26] was 6.22 µM (inactive) and the GI50 [27] was 7.6 µM (inactive). For the same molecule, the GI50 [28] was 2.42 µM (inactive), the GI50 [29] was 16.9 µM (inactive) and the GI50 [30] was 17.3 µM (inactive). For the same molecule, the GI50 [31] was 14.7 µM (inactive), the GI50 [32] was 1.64 µM (inactive) and the GI50 [33] was 22.4 µM (inactive). For the same molecule, the GI50 [34] was 14.8 µM (inactive), the GI50 [35] was 21.1 µM (inactive) and the GI50 [36] was 17.7 µM (inactive). For the same molecule, the GI50 [37] was 2.03 µM (inactive), the GI50 [38] was 10.7 µM (inactive) and the GI50 [39] was 2.52 µM (inactive). For the same molecule, the GI50 [40] was 12 µM (inactive), the GI50 [41] was 2.64 µM (inactive) and the GI50 [42] was 19 µM (inactive). For the same molecule, the GI50 [43] was 16.6 µM (inactive), the GI50 [44] was 17.1 µM (inactive) and the GI50 [45] was 16.1 µM (inactive). For the same molecule, the GI50 [46] was 14.1 µM (inactive), the GI50 [47] was 19.3 µM (inactive) and the GI50 [48] was 12.9 µM (inactive). For the same molecule, the GI50 [49] was 18.5 µM (inactive), the GI50 [50] was 20.4 µM (inactive) and the GI50 [51] was 1.9 µM (inactive). The GI50 [52] was 2.03 µM (inactive), the GI50 [53] was 2.09 µM (inactive) and the GI50 [54] was 16.3 µM (inactive). The GI50 [55] was 2.16 µM (inactive), the GI50 [56] was 7.41 µM (inactive) and the GI50 [57] was 16.8 µM (inactive). For the same molecule, the GI50 [58] was 1.96 µM (inactive).
For `Cc1nn(-c2ccccc2)c2c1C(c1cc3ccccc3nc1Cl)NC(=O)N2` (centres undefined), the GI50 [1] was 16.7 µM (inactive), the GI50 [2] was 21.5 µM (inactive) and the GI50 [3] was 56.2 µM (inactive). For the same molecule, the GI50 [4] was 17.7 µM (inactive), the GI50 [5] was 16.6 µM (inactive) and the GI50 [6] was 34.4 µM (inactive). For the same molecule, the GI50 [7] was 25.8 µM (inactive), the GI50 [8] was 19.5 µM (inactive) and the GI50 [9] was 29.4 µM (inactive). For the same molecule, the GI50 [10] was 25.9 µM (inactive), the GI50 [12] was 23.8 µM (inactive) and the GI50 [13] was 19.8 µM. The GI50 [14] was 5.81 µM (inactive), the GI50 [15] was 20.4 µM (inactive) and the GI50 [16] was 10.8 µM (inactive). The GI50 [17] was 18.7 µM (inactive), the GI50 [18] was 27.5 µM (inactive) and the GI50 [19] was 11 µM (inactive). The GI50 [20] was 2.94 µM (inactive), the GI50 [21] was 21.2 µM (inactive) and the GI50 [22] was 19.4 µM (inactive). The GI50 [23] was 19.6 µM (inactive), the GI50 [24] was 25.3 µM (inactive) and the GI50 [25] was 20.6 µM (inactive). For the same molecule, the GI50 [26] was 23.9 µM (inactive), the GI50 [27] was 18.5 µM (inactive) and the GI50 [28] was 2.64 µM (inactive). The GI50 [59] was 20.8 µM (inactive), the GI50 [29] was 19.1 µM (inactive) and the GI50 [30] was 17.9 µM (inactive). For the same molecule, the GI50 [31] was 30.8 µM (inactive), the GI50 [32] was 16.5 µM (inactive) and the GI50 [33] was 28.4 µM (inactive). The GI50 [34] was 32.7 µM (inactive), the GI50 [35] was 34.1 µM (inactive) and the GI50 [36] was 22.5 µM (inactive). The GI50 [37] was 19.3 µM (inactive), the GI50 [38] was 19.8 µM (inactive) and the GI50 [39] was 23.9 µM (inactive). The GI50 [40] was 18.5 µM (inactive), the GI50 [41] was 27.4 µM (inactive) and the GI50 [42] was 21.1 µM (inactive). The GI50 [43] was 19.9 µM (inactive), the GI50 [45] was 14.3 µM (inactive) and the GI50 [46] was 17 µM (inactive). The GI50 [47] was 20.1 µM (inactive), the GI50 [48] was 24.4 µM (inactive) and the GI50 [49] was 20.7 µM (inactive). The GI50 [50] was 18.9 µM (inactive), the GI50 [51] was 2.19 µM (inactive) and the GI50 [52] was 17.7 µM (inactive). The GI50 [53] was 59.2 µM (inactive), the GI50 [54] was 28.2 µM (inactive) and the GI50 [55] was 17.1 µM (inactive). The GI50 [56] was 27.7 µM (inactive), the GI50 [57] was 19 µM (inactive) and the GI50 [58] was 14.3 µM (inactive).
For `OC12C3C4CC5C(C4[C@@H]1Br)C2[C@@](O)(c1c(F)c(F)c(F)c(F)c1F)C53` (some centres undefined), the GI50 [1] was 41.7 µM (inactive), the GI50 [2] was 33.2 µM (inactive) and the GI50 [3] was 33.7 µM (inactive). For the same molecule, the GI50 [4] was 51.1 µM (inactive), the GI50 [5] was 39.4 µM (inactive) and the GI50 [6] was 21.1 µM (inactive). For the same molecule, the GI50 [7] was 21.7 µM (inactive), the GI50 [8] was 39.4 µM (inactive) and the GI50 [9] was 41.8 µM (inactive). For the same molecule, the GI50 [10] was 27.1 µM (inactive), the GI50 [11] was 36.5 µM (inactive) and the GI50 [12] was 30.8 µM (inactive). The GI50 [13] was 39.8 µM, the GI50 [14] was 38.2 µM (inactive) and the GI50 [15] was 35.1 µM (inactive). The GI50 [16] was 24 µM (inactive), the GI50 [17] was 27.5 µM (inactive) and the GI50 [18] was 22.2 µM (inactive). For the same molecule, the GI50 [19] was 35.6 µM (inactive), the GI50 [20] was 21.4 µM (inactive) and the GI50 [21] was 15.7 µM (inactive). The GI50 [22] was 32.1 µM (inactive), the GI50 [23] was 37 µM (inactive) and the GI50 [24] was 20.4 µM (inactive). For the same molecule, the GI50 [25] was > 100 µM (inactive), the GI50 [26] was 37.6 µM (inactive) and the GI50 [27] was 34.9 µM (inactive). The GI50 [28] was 26.5 µM (inactive), the GI50 [30] was 31.7 µM (inactive) and the GI50 [31] was 33.7 µM (inactive). The GI50 [32] was 29.6 µM (inactive), the GI50 [33] was 27.2 µM (inactive) and the GI50 [34] was 23.3 µM (inactive). The GI50 [35] was 28.2 µM (inactive), the GI50 [36] was 68.2 µM (inactive) and the GI50 [37] was 32 µM (inactive). For the same molecule, the GI50 [38] was 23.3 µM (inactive), the GI50 [40] was 24.3 µM (inactive) and the GI50 [41] was 38.7 µM (inactive). The GI50 [42] was 25.9 µM (inactive), the GI50 [43] was 56.4 µM (inactive) and the GI50 [44] was 39.8 µM (inactive). For the same molecule, the GI50 [45] was 24.5 µM (inactive), the GI50 [46] was 26.2 µM (inactive) and the GI50 [48] was > 100 µM (inactive). The GI50 [49] was 37.2 µM (inactive), the GI50 [51] was 21.3 µM (inactive) and the GI50 [52] was 43.3 µM (inactive). The GI50 [53] was 41.4 µM (inactive), the GI50 [54] was 47.8 µM (inactive) and the GI50 [55] was 38 µM (inactive). The GI50 [56] was 24.8 µM (inactive), the GI50 [57] was 25.6 µM (inactive) and the GI50 [58] was 29.8 µM (inactive).
